From US20040043959A1, “Combination therapies for treating methylthioadenosine phosphorylase deficient cells” (priority 2002, published 2004)
Like-named read-outs stand apart in the source and are kept apart here.

Columns and labels:
[1] = target: T1, human membrane folate-binding protein (mFBP) (Homo sapiens, UniProt P15328); experiment: competitive binding assay against 3H-folic acid with mFBP prepared from KB cells
T1 construct: mFBP prepared from cultured KB cells (human nasopharyngeal carcinoma cells); endogenous in cells
Excerpt: The dissociation constant (Kd) of the preferred inhibitors of the present invention for human membrane folate-binding protein (mFBP) can be determined in a competitive binding assay using mFBP prepared from cultured KB cells (human nasopharyngeal carcinoma cells) as disclosed in U.S. Pat. No. 5,646,141, the disclosures of which is hereby incorporated by reference in its entirety.
Human membrane folate binding protein can be obtained from KB cells by methods well known in the art. KB cells are washed, sonicated for cell lysis and centrifuged to form pelleted cells. The pellet can then be stripped of endogenous bound folate by resuspension in acidic buffer (KH2PO4—KOH and 2-mercaptoethanol) and centrifuged again. The pellet is then resuspended and the protein content quantitated using the Bradford method with bovine serum albumin (BSA) as standard.
Disassociation constants are determined by allowing, the test inhibitor to compete against ^3H-folic acid for binding to mFBP. Reaction mixtures are designed to generally contain mFBP, ^3H-folic acid, and various concentrations of the subject test inhibitor in acidic buffer (KH2PO4—KOH and 2-mercaptoethanol). The competition reaction is typically conducted at 25°. Because of the slow nature of release of bound ^3H-folic acid, the test inhibitor may be prebound prior to addition of bound ^3H-folic acid, after which the reaction should be allowed to equilibriate. The full reaction mixtures then should be drawn through nitrocellulose filters to isolate the cell membranes with bound ^3H-folic acid. The trapped mFBP are then washed and measured by scintillation counting. The data can then be nonlinearly fitted as described above in determining Ki. The mFBP Kd for ^3H-folic acid, used for calculating the competitor Kd, can be obtained by directly titrating mFBP with ^3H-folate. The mFBP Kd can then be used to calculate the competitor Kd by nonlinear fitting of the data to an equation for tight-binding Kc. Table 1 below provides the Kd values of several GARFT inhibitors using the assay described above.

[2] = test system: MTAP-competent SK-MES-1 non-small cell lung cancer cells; experiment: MTT growth inhibition by Compound 7 with and without MTA; format: cell-based, human
Experimental: All cell lines were purchased from the American Type Culture Collection. All cultures were maintained at 37° C., in 5% air-CO2 atmosphere in a humidified incubator.
(§1) Cells were plated in columns 2-12 of a 96-well microtiter plate, with column 2 designated as the vehicle control. The same volume of medium was added to column 1. Column 1 was designated as the media control. After a 4-hour incubation, the cells were treated with Compound 7, with or without a non-growth inhibitory concentration of MTA, in quadruplicate wells. […] MTT (4,5-dimethylthiazol-2-yl)-2,5-diphenyl tetrazolium bromide; Sigma, St. Louis, Mo.) was added to a final concentration of 0.25-1 mg/ml in each well, and the plates were incubated for 4 hours. The liquid was removed from each well. DMSO was added to each well, then the plates were vortexed slowly in the dark for 7-20 minutes. The formazin product was quantified spectrophotometrically at […] on a Molecular Devices Vmax™ kinetic microplate reader.

[3] = test system: human pancreatic BxPC-3 tumor; experiment: antitumor activity in MTAP-deficient xenograft model; format: in vivo, mice
Excerpt: (§2) To evaluate the in vivo effect of combination therapy on known human MTAP-deficient tumors, an MTAP-deficient cell line was introduced to mice to produce xenograft MTAP-deficient tumors. 108 BALB/c/nu/nu female mice bearing subcutaneous tumor fragments produced from the MTAP-deficent BxPC-3 cell line were housed 3 per cage with free access to food and water. Mice were fed a folate-deficient chow (#Td84052, Harlan Teklad, Madison, Wis.) beginning 14 days prior to initiation of drug treatment and continuing throughout the study. After randomization by tumor volume into 8 treatment groups and assigning the remaining 12 mice to group 7, beginning on the twenty-first day after tumor implant mice were dosed with Compound 7 daily for 4 days, and with MTA or vehicle twice-a-day for 8 days, in the amounts indicated in Table 7 below. The vehicle for both compounds was 0.75% sodium bicarbonate in water (7.5% NaHCO3 solution (Cellgro #25-035-4, Mediatech, Herndon, Va.) diluted 1:10 in sterile water for injection (Butler, Columbus, Ohio)) under pH adjusted to 7.0-7.4. Solutions were sterilized by filtration through 0.22 micron polycarboniate filters (Cameo 25GAS, Micron Separations Inc., Westboro, Mass.). Tumor volumes and animal weight loss, which is an indicator of toxicity, were recorded daily for 14 days at the same time of day, then on a Monday, Wednesday, Friday schedule for the remainder of the study.

[4] = animal weight loss (toxicity) in BxPC-3 xenograft study; format: in vivo; conditions: 40 mg/kg Compound 7 plus 50 mg/kg MTA versus 2.5 mg/kg Compound 7 alone, folate-deficient diet
Excerpt: as §2, with “Solutions were sterilized by filtration through 0.22 micron polycarboniate filters (Cameo 25GAS, Micron Separations Inc., Westboro, Mass.).” left out

[5] = mouse, in vivo
Experimental: A series of experiments were undertaken in order to evaluate the in vivo effect of schedule of administration of MTA on reduction of […] induced by […]. BALB/c/nu/nu female mice were housed 3 per cage with free access to food and water. Mice were fed a folate-deficient chow (#Td84052, Harlan-Teklad, Madison, Wis.) for at least 14 days prior to initiation of drug treatment and continuing throughout the study. Animal weight loss, which is a measure of toxicity, was recorded at least daily for 18 days at the same time of day. Table 11 presents a summary of data from multiple experiments, i.e., at least two experiments for each schedule. […] To produce this effect, MTA must be administered at the beginning of treatment with Compound 7 and continuing until after treatment with Compound 7. Further, since the activity of Compound 7 continues for at least a few days after the last dose was administered, to produce an effect MTA must be administered during this period of activity, i.e. for at least 2 days after the last dose of the cytotoxic was administered.

[6] = target: T1, human membrane folate-binding protein (mFBP); conditions: relative to lometrexol; cited from earlier work
GARFT = target: T2, GARFT (Homo sapiens, UniProt P22102); conditions: read-out: Ki (GARFT inhibitor); cited from earlier work
T2 construct: The GART domain (residues 808-1010) of the trifunctional human GARS-AIRS-GART enzyme was purified; made in house

[7] = test system: MTAP-competent NCI-H460 cells; experiment: MTT growth inhibition by Compound 1 or 3 with and without MTA; format: cell-based, human; conditions: FIG. 7
Experimental: as §1

AICARFT = target: T3, AICARFT (Homo sapiens, UniProt P31939); conditions: cited from earlier work
T3 construct: the catalytic domain of the human enzyme and its substrate (i.e., GARFT and GAR, or AICARFT and AICAR)

[8] = test system: BxPC-3 cells transfected with the MTAP gene; experiment: colony formation cytotoxicity, 6 h drug exposure; format: cell-based, human; conditions: 1.5 μM Compound 7 with 50 μM anti-toxicity agent, FIG. 5a
Experimental: (§3) Cytoxicity data was collected using BxPC-3, PANC-1 and HT-1080 cells which were cultured in Iscove's medium supplemented with 10% dialyzed, horse serum, 5% nonessential amino acids and 5% sodium pyruvate.
(§4) Mid-log-phase cells were trypsinized and placed in 60 mm tissue culture dishes at 200 or 250 cells per dish. Cells from each cell line were left to attach for 4 hours and then were treated with Compound 7, with or without MTA or dcSAMe, in 5-fold serial dilutions for 6 or 24 hours. For data shown in FIGS. 5a and 5b, cells were exposed to drug(s) for 6 hours only. For data shown in FIG. 6, cells were exposed to Compound 7 for 24 hours and to MTA continuously for the duration of colony growth (i.e. 24 hours and thereafter). Cells were next washed with PBS, and then fixed and stained with 1% w/v crystal violet in 25% methanol (Sigma, St. Louis, Mo.). After washing the dishes 2-3 times. with deionized water, the colonies were counted. Triplicate dishes were used for each drug concentration.

[9] = test system: MTAP-competent NCI-H460 cells; experiment: colony formation cytotoxicity with varying duration of MTA exposure; format: cell-based, human; conditions: MTA for at least 48 hours, at least 1 day after Compound 7 exposure, FIG. 8
Experimental: as §4
Cytoxicity data for combination therapy of Compound 7 with MTA was collected using MTAP-competent […] cells. NCI-H460 cells were cultured, incubated and stained as described in Example 3(B) above, but with an incubation time of up to eight days.

MTAP-deficient BxPC-3 = experiment: colony formation cytotoxicity, 6 h drug exposure; format: cell-based, human; conditions: Compound 7 with 50 μM anti-toxicity agent, FIG. 5b
Experimental: as §3, §4

T1 sequence (P15328 25-234): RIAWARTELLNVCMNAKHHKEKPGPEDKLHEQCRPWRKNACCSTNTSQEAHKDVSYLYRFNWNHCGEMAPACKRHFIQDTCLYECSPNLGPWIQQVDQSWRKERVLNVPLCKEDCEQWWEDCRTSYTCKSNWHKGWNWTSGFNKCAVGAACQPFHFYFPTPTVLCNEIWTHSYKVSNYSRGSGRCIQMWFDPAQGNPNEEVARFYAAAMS
T2 sequence (P22102 808-1010): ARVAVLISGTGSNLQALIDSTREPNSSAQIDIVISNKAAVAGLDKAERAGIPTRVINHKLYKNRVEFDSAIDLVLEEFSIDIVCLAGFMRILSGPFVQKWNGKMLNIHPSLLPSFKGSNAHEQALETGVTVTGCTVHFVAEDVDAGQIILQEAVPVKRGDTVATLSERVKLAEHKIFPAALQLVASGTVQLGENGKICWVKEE
T3 sequence (P31939 199-592 limits assumed): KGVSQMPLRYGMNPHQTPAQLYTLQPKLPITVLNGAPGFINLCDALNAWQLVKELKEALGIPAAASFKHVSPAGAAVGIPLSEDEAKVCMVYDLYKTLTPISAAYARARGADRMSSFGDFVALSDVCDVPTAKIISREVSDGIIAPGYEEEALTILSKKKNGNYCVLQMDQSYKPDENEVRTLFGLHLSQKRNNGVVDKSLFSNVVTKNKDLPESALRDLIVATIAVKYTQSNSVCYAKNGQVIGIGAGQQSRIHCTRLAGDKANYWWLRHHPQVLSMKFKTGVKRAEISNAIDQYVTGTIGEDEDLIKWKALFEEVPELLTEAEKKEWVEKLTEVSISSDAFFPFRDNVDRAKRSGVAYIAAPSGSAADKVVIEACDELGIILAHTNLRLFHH

SMILES: Cc1cc(C(=O)N[C@@H](CCC(=O)O)C(=O)O)sc1CC[C@@H]1CNc2nc(N)[nH]c(=O)c2C1 (single isomer, unassigned) [Compound 7]
- Kd [1]: 290 nM
- cell growth inhibition as a single agent ([2]; SK-MES-1, 168 h, FIG. 3): fully inhibited cell growth
- cell number at the highest concentration of Compound 7 tested ([2]; with 10 μM MTA, up to approximately 60 times the IC50 of Compound 7): about 75 % of control
- Time to 1000 mm^3 (days) Mean ([3]; 2.5 mg/kg Compound 7 qd x4): 32.3 days
- Time to 1000 mm^3 (days) Median ([3]; 2.5 mg/kg Compound 7 qd x4): 32.4 days
- Time to 1000 mm^3 (days) Mean ([3]; 5 mg/kg Compound 7 qd x4): 32.1 days
- Time to 1000 mm^3 (days) Median ([3]; 5 mg/kg Compound 7 qd x4): 32.4 days
- Time to 1000 mm^3 (days) Mean ([3]; 10 mg/kg Compound 7 qd x4): 34.0 days
- Time to 1000 mm^3 (days) Median ([3]; 10 mg/kg Compound 7 qd x4): 33.4 days
- Time to 1000 mm^3 (days) Median ([3]; 20 mg/kg Compound 7 qd x4): 36.4 days
- increase of therapeutic window ([3]; MTA twice a day 8 days, Compound 7 daily 4 days, nu/nu tumor-bearing mice, folate-deficient diet): 16 fold
- reduction in toxicity (weight loss) [4]: 16 fold
- Increase in Compound 7 maximum tolerated dose (-fold dose) ([5]; female, BALB/c/nu/nu): 4 -fold dose
- Increase in Compound 7 maximum tolerated dose (-fold dose) [5]: None
- binds less tightly than lometrexol to mFBP [6]: about 1400 fold
- Ki (GARFT): 0.5 nM

SMILES: Nc1nc(N)c(SCCc2ccc(C(=O)N[C@@H](CCC(=O)O)C(=O)O)s2)c(=O)[nH]1 [Compound 1, N-[5-(2[(2,6-diamino-4(3H)-oxopyrimidin5yl)thio]ethyl)thieno-2-yl]-L-glutamic acid]
- factor by which MTA reduced the growth inhibitory activity [7]: 3
- Ki (specific inhibitor of AICARFT) (AICARFT): micromolar

SMILES: CSC[C@H]1O[C@@H](n2cnc3c(N)ncnc32)[C@H](O)[C@@H]1O [MTA, methylthioadenosine]
- cell survival [8]: 100%
- protection from Compound 7-induced cytotoxicity [9]: fully protected cells from Compound 7-induced cytotoxicity
- Time to 1000 mm^3 (days) Mean ([3]; 50 mg/kg MTA bid x8 alone): 22.6 days
- Time to 1000 mm^3 (days) Median ([3]; 50 mg/kg MTA bid x8 alone): 21.4 days

SMILES: C[S+](CCCN)CC1OC(n2cnc3c(N)ncnc32)C(O)C1O (stereo not drawn) [dcSAMe, decarboxylated S-adenosylmethionine]
- cell survival [8]: 100%
- effect on cell survival (MTAP-deficient BxPC-3): increased cell survival by less than observed for the MTAP competent cells
